The numbers were not newly measured in paper PMC9410468 (Marine Drugs, 2022), which cites them from elsewhere.

The subject of the series is rats. The note with it: rat, in vivo; cited from earlier work. From the text:
In the mammalian brain, the medial habenula (MHB) expresses high nAChR levels. Recently, α3-containing nAChRs present in the medial habenula have attracted substantial attention because of their potential role in influencing nicotine addiction. In addition, recent studies have shown that the gene polymorphism of the α3 and β4 subunits in vivo are related to nicotine addiction and drug abuse. The α3β4 nAChR subtype is mainly located in the MHB, […] (IPN), and fasciculus retroflexus (FR) of the rat brain. In addition, it is also expres ...

Take AT-1001: the “effect on nicotine self-administration (in words)” value is “reduce nicotine self-administration in rats”.
